Test results taken from PMC8138313, “Identification, Selection and Immune Assessment of Liver Stage CD8 T Cell Epitopes From Plasmodium falciparum” (Frontiers in Immunology, 2021).
Where a SMILES comes first, the peptide text is derived from it.

Key:
Assay in all cases: HLA class I binding assay (cell-free competition, fluorescence polarization)
HLA B*4402 = HLA B*4402 (Homo sapiens, UniProt P01889, A223V/A65T/A93T/A95T/D201E/D98Y/E176V/E187L/E204Q/E69K/G107R/H137Y/K202T/L105A/L119I/N104T/N87E/Q56L/Q94N/R106L/R155S/R180D/S101N/S121R/S35A/S48T/T118I/V36M/W191S/Y140D/Y91S)
HLA A*0201 = HLA A*0201 (Homo sapiens, UniProt P04439, D140Y/D185E/D98H/E176V/E277Q/G131W/G231S/I119V/I121R/I166T/I218V/L300P/L318F/N151K/N90K/P208A/P217A/Q86G/Q94H/R138H/R169H/T345S)
HLA A*0101 = HLA A*0101 (Homo sapiens, UniProt P04439, A114D/A174V/A182V/D101N/D185E/E176A/E190D/L180R/Q94H/R68K/S129P/T187R/V100A/V91M/W191G)
HLA A*2402 = HLA A*2402 (Homo sapiens, UniProt P04439, D101N/D140Y/D185E/E176V/E190D/F33S/G103R/G107R/I119L/I121M/I306V/K335N/L105A/L180Q/L300P/N151K/N90K/Q86E/Q94H/R106L/R138H/R89G/T104I/T345S/V100E/W191G/Y123F)

SMILES: CC[C@H](C)[C@H](NC(=O)[C@H](CC(C)C)NC(=O)[C@H](CC(=O)O)NC(=O)[C@H](CC(N)=O)NC(=O)[C@H](CCCNC(=N)N)NC(=O)[C@H](CO)NC(=O)[C@@H](NC(=O)[C@H](CCC(=O)O)NC(=O)[C@H](C)N)[C@@H](C)CC)C(=O)O (H-AEISRNDLI-OH)
- IC50 (HLA B*4402): 4.53 µM

SMILES: CC[C@H](C)[C@H](NC(=O)[C@H](CCC(N)=O)NC(=O)[C@@H](NC(=O)[C@H](C)NC(=O)[C@H](CCCCN)NC(=O)[C@H](CC(C)C)NC(=O)[C@H](CC(N)=O)NC(=O)[C@H](CCC(=O)O)NC(=O)[C@@H](N)CC(=O)O)[C@@H](C)CC)C(=O)O (H-DENLKAIQI-OH)
- IC50 (HLA B*4402): 91.3 µM

SMILES: CC(C)C[C@H](NC(=O)[C@H](CC(N)=O)NC(=O)[C@H](CCC(=O)O)NC(=O)[C@@H](N)CCC(=O)O)C(=O)N[C@@H](Cc1ccccc1)C(=O)N[C@@H](CCC(=O)O)C(=O)N[C@@H](Cc1c[nH]c2ccccc12)C(=O)N[C@@H](CO)C(=O)N[C@@H](CCCCN)C(=O)N[C@H](C(=O)O)[C@@H](C)O (H-EENLFEWSKT-OH; N-terminus assumed)
- IC50 (HLA B*4402): > 1000 µM

SMILES: CC(C)C[C@H](NC(=O)[C@@H]1CCCN1C(=O)[C@H](Cc1ccccc1)NC(=O)[C@H](CC(N)=O)NC(=O)[C@H](Cc1ccccc1)NC(=O)[C@H](CC(N)=O)NC(=O)[C@H](CCC(=O)O)NC(=O)[C@H](CC(C)C)NC(=O)[C@@H](N)Cc1ccccc1)C(=O)O (H-FLENFNFPL-OH)
- IC50 (HLA A*0201): 3.68 µM
- IC50 (HLA A*0101): > 1000 µM

SMILES: CC[C@H](C)[C@H](NC(=O)CNC(=O)[C@H](Cc1ccc(O)cc1)NC(=O)[C@@H](N)Cc1c[nH]cn1)C(=O)N[C@@H](CC(N)=O)C(=O)N1CCC[C@H]1C(=O)N[C@H](C(=O)N[C@@H](CCC(N)=O)C(=O)N[C@@H](CC(C)C)C(=O)O)C(C)C (H-HYGINPVQL-OH)
- IC50 (HLA A*2402): 6.79 µM

SMILES: CC(C)[C@H](NC(=O)[C@H](CCCNC(=N)N)NC(=O)[C@H](CC(N)=O)NC(=O)[C@H](CCCCN)NC(=O)[C@H](Cc1ccc(O)cc1)NC(=O)[C@@H](NC(=O)[C@H](CC(N)=O)NC(=O)[C@H](Cc1ccc(O)cc1)NC(=O)[C@@H](N)Cc1c[nH]cn1)[C@@H](C)O)C(=O)N[C@@H](Cc1ccccc1)C(=O)O (H-HYNTYKNRVF-OH)
- IC50 (HLA A*2402): 3 µM

SMILES: CC[C@H](C)[C@H](N)C(=O)N[C@@H](CCC(=O)O)C(=O)N[C@@H](CC(N)=O)C(=O)N[C@@H](CC(N)=O)C(=O)N[C@@H](CC(C)C)C(=O)N[C@@H](Cc1ccc(O)cc1)C(=O)N[C@@H](CCC(=O)O)C(=O)N[C@@H](CCCNC(=N)N)C(=O)N[C@@H](CC(C)C)C(=O)O (H-IENNLYERL-OH)
- IC50 (HLA B*4402): 60.1 µM

SMILES: CC[C@H](C)[C@H](N)C(=O)N[C@@H](Cc1c[nH]c2ccccc12)C(=O)N[C@@H](Cc1ccc(O)cc1)C(=O)N[C@@H](CCCCN)C(=O)N[C@@H](Cc1ccc(O)cc1)C(=O)N[C@H](C(=O)N[C@@H](CCC(=O)O)C(=O)N[C@@H](CO)C(=O)N[C@@H](CC(=O)O)C(=O)N[C@@H](Cc1ccccc1)C(=O)O)[C@@H](C)O (H-IWYKYTESDF-OH)
- IC50 (HLA A*2402): 1.12 µM

SMILES: CC[C@H](C)[C@H](N)C(=O)N[C@@H](Cc1ccc(O)cc1)C(=O)NCC(=O)N[C@@H](CCCCN)C(=O)NCC(=O)NCC(=O)N[C@@H](Cc1ccccc1)C(=O)N[C@@H](CCC(N)=O)C(=O)N[C@@H](Cc1ccccc1)C(=O)O (H-IYGKGGFQF-OH)
- IC50 (HLA A*2402): 0.163 µM

SMILES: CC[C@H](C)[C@H](NC(=O)[C@H](CCC(=O)O)NC(=O)[C@H](CC(N)=O)NC(=O)[C@H](CC(C)C)NC(=O)[C@H](CC(C)C)NC(=O)[C@@H]1CCCN1C(=O)[C@@H]1CCCN1C(=O)[C@H](CC(C)C)NC(=O)[C@@H](N)CCCCN)C(=O)O (H-KLPPLLNEI-OH)
- IC50 (HLA A*0201): 2.66 µM
- IC50 (HLA A*2402): 0.0887 µM

SMILES: CC[C@H](C)[C@H](NC(=O)[C@@H]1CCCN1C(=O)[C@H](Cc1ccc(O)cc1)NC(=O)[C@H](CCC(N)=O)NC(=O)[C@H](CC(=O)O)NC(=O)[C@H](CO)NC(=O)[C@H](CCCCN)NC(=O)[C@H](CCSC)NC(=O)[C@@H](N)CCCCN)C(=O)O (H-KMKSDQYPI-OH)
- IC50 (HLA A*0201): 3.07 µM
- IC50 (HLA A*2402): 6.9 µM

SMILES: CC[C@H](C)[C@H](NC(=O)[C@H](CCCNC(=N)N)NC(=O)[C@@H]1CCCN1C(=O)[C@H](CC(=O)O)NC(=O)[C@H](Cc1ccc(O)cc1)NC(=O)[C@@H](N)CCCCN)C(=O)N[C@@H](CO)C(=O)NCC(=O)N[C@@H](Cc1c[nH]c2ccccc12)C(=O)O (H-KYDPRISGW-OH)
- IC50 (HLA A*2402): 5.01 µM

SMILES: CC(C)C[C@H](N)C(=O)N[C@@H](Cc1ccccc1)C(=O)NCC(=O)N[C@@H](CC(=O)O)C(=O)N[C@@H](CCC(=O)O)C(=O)N[C@@H](CC(N)=O)C(=O)N[C@@H](Cc1ccccc1)C(=O)N[C@@H](CO)C(=O)N[C@@H](Cc1ccccc1)C(=O)O (H-LFGDENFSF-OH)
- IC50 (HLA A*2402): 5.87 µM

SMILES: CC(C)C[C@H](N)C(=O)N[C@H](C(=O)N[C@@H](Cc1c[nH]cn1)C(=O)N[C@@H](CCCCN)C(=O)N[C@@H](Cc1ccc(O)cc1)C(=O)N[C@@H](CC(N)=O)C(=O)N[C@@H](CCC(=O)O)C(=O)N[C@@H](Cc1ccccc1)C(=O)N[C@H](C(=O)O)C(C)C)[C@@H](C)O (H-LTHKYNEFV-OH)
- IC50 (HLA A*0201): 2.41 µM
- IC50 (HLA A*0101): 174 µM

SMILES: CSCC[C@H](N)C(=O)N[C@@H](Cc1ccc(O)cc1)C(=O)N[C@@H](Cc1c[nH]cn1)C(=O)N[C@@H](CC(N)=O)C(=O)N[C@@H](CCCCN)C(=O)N[C@@H](CCC(=O)O)C(=O)N[C@@H](Cc1ccccc1)C(=O)N[C@@H](CC(=O)O)C(=O)N[C@@H](Cc1ccccc1)C(=O)O (H-MYHNKEFDF-OH)
- IC50 (HLA A*2402): 4.51 µM

SMILES: CSCC[C@H](NC(=O)[C@@H](N)CC(N)=O)C(=O)N[C@@H](CC(N)=O)C(=O)N[C@@H](Cc1ccc(O)cc1)C(=O)N[C@@H](CCCCN)C(=O)N[C@@H](CCC(N)=O)C(=O)N[C@@H](CC(N)=O)C(=O)N[C@@H](CC(N)=O)C(=O)N[C@@H](Cc1ccccc1)C(=O)O (H-NMNYKQNNF-OH)
- IC50 (HLA A*2402): 14.7 µM

SMILES: CC(C)C[C@H](NC(=O)[C@H](C)NC(=O)[C@H](CC(=O)O)NC(=O)[C@H](Cc1ccccc1)NC(=O)[C@@H](NC(=O)[C@@H](N)CC(N)=O)[C@@H](C)O)C(=O)N[C@@H](Cc1ccc(O)cc1)C(=O)N[C@@H](Cc1ccc(O)cc1)C(=O)N[C@H](C(=O)O)C(C)C (H-NTFDALYYV-OH)
- IC50 (HLA A*0201): 8.76 µM
- IC50 (HLA A*0101): > 1000 µM

SMILES: NCCCC[C@H](NC(=O)[C@H](Cc1ccc(O)cc1)NC(=O)[C@@H](N)CC(N)=O)C(=O)N[C@@H](CCC(N)=O)C(=O)N[C@@H](CC(N)=O)C(=O)N[C@@H](CC(N)=O)C(=O)N[C@@H](Cc1ccccc1)C(=O)N1CCC[C@H]1C(=O)N[C@@H](Cc1ccccc1)C(=O)O (H-NYKQNNFPF-OH)
- IC50 (HLA A*2402): 9.49 µM

SMILES: CC[C@H](C)[C@H](NC(=O)[C@H](CC(N)=O)NC(=O)[C@H](Cc1ccc(O)cc1)NC(=O)[C@H](CCC(N)=O)NC(=O)[C@H](CC(=O)O)NC(=O)[C@H](CC(N)=O)NC(=O)[C@H](CC(N)=O)NC(=O)[C@H](Cc1ccc(O)cc1)NC(=O)[C@@H](N)CC(N)=O)C(=O)O (H-NYNNDQYNI-OH)
- IC50 (HLA A*2402): 6.54 µM

SMILES: CC(C)C[C@H](NC(=O)[C@H](Cc1ccccc1)NC(=O)[C@@H]1CCCN1)C(=O)N[C@@H](CCCCN)C(=O)N[C@@H](CO)C(=O)NCC(=O)N[C@@H](Cc1ccccc1)C(=O)N[C@H](C(=O)N[C@@H](Cc1ccccc1)C(=O)O)[C@@H](C)O (H-PFLKSGFTF-OH)
- IC50 (HLA A*2402): 8.32 µM

SMILES: N=C(N)NCCC[C@H](NC(=O)[C@H](Cc1ccc(O)cc1)NC(=O)[C@H](CCCCN)NC(=O)[C@@H]1CCCN1C(=O)[C@H](Cc1c[nH]cn1)NC(=O)[C@@H](N)CO)C(=O)N[C@@H](CC(N)=O)C(=O)N[C@@H](Cc1ccccc1)C(=O)N[C@@H](CCCCN)C(=O)N[C@@H](Cc1ccccc1)C(=O)O (H-SHPKYRNFKF-OH)
- IC50 (HLA A*2402): 16.6 µM

SMILES: CC[C@H](C)[C@H](NC(=O)[C@H](CO)NC(=O)[C@H](Cc1ccc(O)cc1)NC(=O)[C@@H](N)[C@@H](C)O)C(=O)N[C@@H](Cc1ccc(O)cc1)C(=O)N[C@H](C(=O)N[C@@H](CC(N)=O)C(=O)N[C@@H](Cc1ccccc1)C(=O)N[C@@H](CCCCN)C(=O)N[C@@H](CC(N)=O)C(=O)O)[C@@H](C)O (H-TYSIYTNFKN-OH)
- IC50 (HLA A*2402): 26.6 µM

SMILES: C[C@@H](O)[C@H](NC(=O)[C@H](Cc1ccc(O)cc1)NC(=O)[C@H](CCCCN)NC(=O)[C@H](Cc1ccc(O)cc1)NC(=O)[C@@H](N)Cc1c[nH]c2ccccc12)C(=O)N[C@@H](CCC(=O)O)C(=O)N[C@@H](CO)C(=O)N[C@@H](CC(=O)O)C(=O)N[C@@H](Cc1ccccc1)C(=O)O (H-WYKYTESDF-OH)
- IC50 (HLA A*2402): 2.51 µM

SMILES: CC(C)[C@H](NC(=O)[C@H](Cc1ccccc1)NC(=O)[C@H](CCC(N)=O)NC(=O)[C@H](Cc1ccccc1)NC(=O)CNC(=O)CNC(=O)[C@H](CCCCN)NC(=O)CNC(=O)[C@@H](N)Cc1ccc(O)cc1)C(=O)N[C@@H](Cc1ccccc1)C(=O)O (H-YGKGGFQFVF-OH)
- IC50 (HLA A*2402): 0.231 µM

SMILES: CC[C@H](C)[C@H](NC(=O)[C@H](Cc1ccc(O)cc1)NC(=O)[C@@H]1CCCN1C(=O)[C@@H]1CCCN1C(=O)[C@H](CC(C)C)NC(=O)CNC(=O)[C@@H](NC(=O)[C@@H](NC(=O)[C@@H](N)Cc1ccc(O)cc1)[C@@H](C)O)[C@@H](C)CC)C(=O)O (H-YTIGLPPYI-OH)
- IC50 (HLA A*0201): 2.46 µM
- IC50 (HLA A*2402): 6.57 µM

SMILES: CC[C@H](C)[C@H](NC(=O)[C@@H](NC(=O)[C@@H]1CCCN1C(=O)[C@H](Cc1ccc(O)cc1)NC(=O)[C@@H](N)Cc1ccc(O)cc1)[C@@H](C)CC)C(=O)N[C@@H](CCCNC(=N)N)C(=O)N[C@@H](CCCCN)C(=O)N[C@@H](CCC(N)=O)C(=O)N[C@@H](Cc1ccccc1)C(=O)O (H-YYPIIRKQF-OH)
- IC50 (HLA A*2402): 0.101 µM
